Measured values published in patent publication US4310660A, “Lincomycin compounds” (The Upjohn Company, priority 1980, dated 1982).
≈ marks a conversion by molar mass, not a printed value. Where two headings read alike, the source gives them in different places.

Columns and labels:
Type in all cases: cell-based
Klebsiella pneumoniae = test: MIC vs. aerobic bacteria, microplate broth-dilution (BHI); settings: Klebsiella pneumoniae, UC58, 20 h, K. pneumoniae UC 58; read-out: MIC
Method: (§1) The Minimal Inhibitory Concentration (MIC's) of both compounds Vs. aerobic bacteria is determined using a standard microplate broth-dilution method. Brain Heart Infusion (BHI-Difco) broth medium is used, and the plates are incubated at 37° C. for 20 hrs.

Proteus vulgaris = test: as above; settings: Proteus vulgaris, UC93, 20 h, P. vulgaris UC 93; read-out: MIC
Method: as §1

Pseudomonas aeruginosa = test: as above; settings: UC95, 20 h, Ps. aeruginosa UC 95, read-out: MIC
Method: as §1

Escherichia coli = test: as above; settings: UC45, 20 h, E. coli UC 45, read-out: MIC
Method: as §1

[1] = tested on: Salmonella schottmuelleri; test: as above; settings: Salmonella, UC126, 20 h, S. schottmuelleri UC 126
Method: as §1

Streptococcus faecalis = test: as above; settings: Enterococcus faecalis, UC694, 20 h, St. faecalis UC 694; read-out: MIC
Method: as §1

Diplococcus pneumoniae = test: as above; settings: Streptococcus pneumoniae, UC41, 20 h, D. pneumoniae UC 41; read-out: MIC
Method: as §1

Staphylococcus aureus = test: as above; settings: Staphylococcus aureus, read-out: MIC
S. hemolyticus = test: MIC, test procedure as given supra; settings: UC152, 20 h, S. hemolyticus UC 152; read-out: MIC
Method: as §1
The Minimal Inhibitory Concentration (MIC's) of a representative number of the compounds prepared in Examples 2-8 follows. The test procedure is as given supra.

SMILES | MIC (Klebsiella pneumoniae) [µg/mL] | MIC (Proteus vulgaris) [µg/mL] | MIC (Pseudomonas aeruginosa) [µg/mL] | MIC (Escherichia coli) [µg/mL] | MIC [1] [µg/mL] | MIC (Streptococcus faecalis) [µg/mL] | MIC (Diplococcus pneumoniae) [µg/mL] | MIC (Staphylococcus aureus; UC76, 20 h, S. aureus UC 76) [µg/mL] | MIC (Staphylococcus aureus; UC570, 20 h, S. aureus UC 570) [µg/mL] | MIC (Staphylococcus aureus; UC746, 20 h, S. aureus UC 746) [µg/mL] | MIC (S. hemolyticus) [µg/mL]
CS[C@H]1O[C@H]([C@H](NC(=O)C2CCCCN2CCO)[C@H](C)Cl)[C@H](O)[C@H](O)[C@H]1O (stereo partly drawn) [U-44,469] | > 1000 | > 1000 | > 1000 | > 1000 | > 1000 | 1000 (≈ 2340 µM) | 31.3 (≈ 73.3 µM) | 250 (≈ 586 µM) | 250 (≈ 586 µM) | > 1000 | 31.3 (≈ 73.3 µM)
CCc1ccnc(C(=O)N[C@@H]([C@H]2O[C@H](SC)[C@H](O)[C@@H](O)[C@H]2O)[C@H](C)Cl)c1 [U-45,652] | 500 (≈ 1230 µM) | > 1000 | > 1000 | > 1000 | > 1000 | > 1000 | 500 (≈ 1230 µM) | 1000 (≈ 2470 µM) | > 1000 | 1000 (≈ 2470 µM) | 500 (≈ 1230 µM)
CCc1ccnc(C(=O)N[C@@H]([C@H]2O[C@H](SC)[C@H](O)[C@@H](O)[C@H]2O)[C@@H](C)O)c1 [U-45,653] | > 1000 | > 1000 | > 1000 | > 1000 | > 1000 | > 1000 | > 1000 | > 1000 | > 1000 | > 1000 | > 1000
CCc1ccc(C(=O)N[C@@H]([C@H]2O[C@H](SC)[C@H](O)[C@@H](O)[C@H]2O)[C@H](C)Cl)nc1 [U-45,656] | 1000 (≈ 2470 µM) | > 1000 | > 1000 | > 1000 | 1000 (≈ 2470 µM) | 1000 (≈ 2470 µM) | – | 62.5 (≈ 154 µM) | 62.5 (≈ 154 µM) | 62.5 (≈ 154 µM) | 3.9 (≈ 9.63 µM)
CS[C@H]1O[C@H]([C@H](NC(=O)c2cccnc2Cl)[C@H](C)Cl)[C@H](O)[C@H](O)[C@H]1O [U-45,657] | > 1000 | > 1000 | > 1000 | > 1000 | > 1000 | > 1000 | – | 125 (≈ 304 µM) | 250 (≈ 608 µM) | 250 (≈ 608 µM) | 7.8 (≈ 19 µM)
CS[C@H]1O[C@H]([C@H](NC(=O)c2ccccn2)[C@H](C)Cl)[C@H](O)[C@H](O)[C@H]1O [U-45,863] | > 1000 | > 1000 | > 1000 | > 1000 | > 1000 | – | 62.5 (≈ 166 µM) | 62.5 (≈ 166 µM) | – | – | 2 (≈ 5.31 µM)
CS[C@H]1O[C@H]([C@H](NC(=O)c2ccccn2)[C@H](C)O)[C@H](O)[C@H](O)[C@H]1O [U-46,135] | > 1000 | > 1000 | > 1000 | > 1000 | > 1000 | > 1000 | > 1000 | > 1000 | > 1000 | > 1000 | 1000 (≈ 2790 µM)
